Common to all, as to test: Differential Scanning Fluorimetry (DSF) Tm shift
Type in all cases: binding
In general terms: Differential scanning fluorimetry follows unfolding on heating by fluorescence.

In one assay the target is T1, FES Catalytic Domain+SH2 (Homo sapiens, UniProt P07332).
T1 construct: for 8, we also made a longer version containing one or more additional domains; His-tag; made in house; host or cells: Escherichia coli
Particulars: 2 µM protein, 10 µM inhibitor, average of 3 experiments, each in duplicate.

The next assay concerns the target T2, AKT3 Catalytic Domain (Homo sapiens, UniProt Q9Y243).
T2 construct: AKT3 (Q9Y243); CD; His-tag; made in house; host or cells: Escherichia coli
Particulars: 2 µM protein, 10 µM inhibitor, average of 3 experiments, each in duplicate.

In a further assay the target is T3, DMPK Catalytic Domain (Homo sapiens, UniProt Q09013).
T3 construct: For all of them, we expressed and purified the catalytic domain separately; His-tag; made in house; host or cells: Escherichia coli
T3 sequence (Q09013 71-339 limits assumed): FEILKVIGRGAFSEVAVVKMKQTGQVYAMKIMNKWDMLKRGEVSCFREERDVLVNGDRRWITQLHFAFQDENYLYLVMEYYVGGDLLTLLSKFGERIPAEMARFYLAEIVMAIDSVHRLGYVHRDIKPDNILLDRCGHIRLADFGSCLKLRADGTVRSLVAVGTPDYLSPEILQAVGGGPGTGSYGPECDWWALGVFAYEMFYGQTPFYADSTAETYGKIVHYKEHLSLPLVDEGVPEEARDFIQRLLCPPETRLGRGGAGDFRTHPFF
The following applies: 2 µM protein, 10 µM inhibitor, average of 3 experiments, each in duplicate.

Assay [1] addresses SRC Catalytic Domain+SH2+SH3 (Homo sapiens, UniProt P12931). Particulars: 2 µM protein, 10 µM inhibitor, average of 3 experiments, each in duplicate.
In the next assay the target is T4, PAK7 Catalytic Domain (Homo sapiens, UniProt Q9P286).
T4 construct: For all of them, we expressed and purified the catalytic domain separately; His-tag; made in house; host or cells: Escherichia coli
Particulars: 2 µM protein, 10 µM inhibitor, average of 3 experiments, each in duplicate.

In the next assay the target is T5, CDK2 + Cyclin A (Homo sapiens, UniProt P24941).
T5 construct: CDK2 (P24941); 1–299; His-tag; made in house; host or cells: Escherichia coli
The following applies: CDK2 + Cyclin A; 2 µM protein, 10 µM inhibitor; average of 3 experiments, each in duplicate.

The next assay has as its target T6, STK3 Catalytic Domain (Homo sapiens, UniProt Q13188).
T6 construct: For all of them, we expressed and purified the catalytic domain separately; His-tag; made in house; host or cells: Escherichia coli
T6 sequence (Q13188 27-278 limits assumed): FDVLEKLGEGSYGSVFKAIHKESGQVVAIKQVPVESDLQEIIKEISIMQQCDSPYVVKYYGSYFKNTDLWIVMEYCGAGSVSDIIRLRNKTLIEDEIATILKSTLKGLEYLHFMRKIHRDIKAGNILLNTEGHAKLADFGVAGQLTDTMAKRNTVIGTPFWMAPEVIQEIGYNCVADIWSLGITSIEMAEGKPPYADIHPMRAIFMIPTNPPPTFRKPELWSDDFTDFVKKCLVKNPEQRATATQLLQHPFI
The following applies: 2 µM protein, 10 µM inhibitor, average of 3 experiments, each in duplicate.

The next assay addresses T7, CHK2 Catalytic Domain (Homo sapiens, UniProt O96017).
T7 construct: For all of them, we expressed and purified the catalytic domain separately; His-tag; made in house; host or cells: Escherichia coli
The following applies: 2 µM protein, 10 µM inhibitor, average of 3 experiments, each in duplicate.

For assay [2], the target named is T8, STK3 Catalytic domain+SARAH (Homo sapiens, UniProt Q13188).
T8 construct: for 8, we also made a longer version containing one or more additional domains; His-tag; made in house; host or cells: Escherichia coli
T8 sequence (Q13188 1-491): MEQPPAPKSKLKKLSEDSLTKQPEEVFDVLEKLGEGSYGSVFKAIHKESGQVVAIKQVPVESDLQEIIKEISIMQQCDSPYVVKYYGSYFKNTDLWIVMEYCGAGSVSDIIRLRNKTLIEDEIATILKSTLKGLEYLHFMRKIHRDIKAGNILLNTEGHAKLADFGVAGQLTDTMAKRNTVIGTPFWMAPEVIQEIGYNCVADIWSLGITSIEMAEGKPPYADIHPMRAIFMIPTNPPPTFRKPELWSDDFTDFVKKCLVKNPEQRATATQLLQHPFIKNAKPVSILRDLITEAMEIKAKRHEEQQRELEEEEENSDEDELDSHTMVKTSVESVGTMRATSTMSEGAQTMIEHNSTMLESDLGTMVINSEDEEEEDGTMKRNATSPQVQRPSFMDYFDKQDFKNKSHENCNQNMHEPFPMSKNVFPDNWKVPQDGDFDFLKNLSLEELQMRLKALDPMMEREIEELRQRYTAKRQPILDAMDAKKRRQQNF
The following applies: 2 µM protein, 10 µM inhibitor, average of 3 experiments, each in duplicate.

The target in the next assay is T9, PAK4 Catalytic Domain (Homo sapiens, UniProt O96013).
T9 construct: For all of them, we expressed and purified the catalytic domain separately; His-tag; made in house; host or cells: Escherichia coli
Particulars: 2 µM protein, 10 µM inhibitor, average of 3 experiments, each in duplicate.

In another assay the target is T10, FES Catalytic Domain (Homo sapiens, UniProt P07332).
T10 construct: For all of them, we expressed and purified the catalytic domain separately; His-tag; made in house; host or cells: Escherichia coli
Particulars: 2 µM protein, 10 µM inhibitor, average of 3 experiments, each in duplicate.

Assay [3] has as its target T11, PAK4 Catalytic Domain+PBD (Homo sapiens, UniProt O96013).
T11 construct: for 8, we also made a longer version containing one or more additional domains; His-tag; made in house; host or cells: Escherichia coli
The following applies: 2 µM protein, 10 µM inhibitor, average of 3 experiments, each in duplicate.

In another assay the target is SRC Catalytic Domain (Homo sapiens, UniProt P12931). Details: For all of them, we expressed and purified the catalytic domain separately; His-tag; made in house; host or cells: Escherichia coli. Particulars: 2 µM protein, 10 µM inhibitor, average of 3 experiments, each in duplicate.
A further assay has as its target T12, FAK2 Catalytic Domain (Homo sapiens, UniProt Q14289).
T12 construct: For all of them, we expressed and purified the catalytic domain separately; His-tag; made in house; host or cells: Escherichia coli
Particulars: 2 µM protein, 10 µM inhibitor, average of 3 experiments, each in duplicate.

The target of the next assay is T13, CDK2 + Cyclin E (Homo sapiens, UniProt P24941).
T13 construct: CDK2 (P24941); 1–299; His-tag; made in house; host or cells: Escherichia coli
Particulars: CDK2 + Cyclin E; 2 µM protein, 10 µM inhibitor; average of 3 experiments, each in duplicate.

T10 sequence (P07332 561-822 limits assumed): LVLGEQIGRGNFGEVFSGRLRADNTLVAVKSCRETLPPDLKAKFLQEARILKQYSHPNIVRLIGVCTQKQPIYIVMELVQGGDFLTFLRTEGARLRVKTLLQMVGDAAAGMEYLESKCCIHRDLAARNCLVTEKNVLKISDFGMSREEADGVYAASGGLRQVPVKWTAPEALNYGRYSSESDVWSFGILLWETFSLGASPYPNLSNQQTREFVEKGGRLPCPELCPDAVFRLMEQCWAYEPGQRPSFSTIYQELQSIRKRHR
T9 sequence (O96013 321-572 limits assumed): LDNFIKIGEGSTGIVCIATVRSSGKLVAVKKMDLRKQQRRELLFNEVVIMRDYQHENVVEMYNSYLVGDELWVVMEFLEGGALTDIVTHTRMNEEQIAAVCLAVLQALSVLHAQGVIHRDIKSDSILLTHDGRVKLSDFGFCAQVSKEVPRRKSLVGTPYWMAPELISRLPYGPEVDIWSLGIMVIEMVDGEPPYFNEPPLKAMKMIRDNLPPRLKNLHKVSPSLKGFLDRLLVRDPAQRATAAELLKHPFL
T2 sequence (Q9Y243 122-479): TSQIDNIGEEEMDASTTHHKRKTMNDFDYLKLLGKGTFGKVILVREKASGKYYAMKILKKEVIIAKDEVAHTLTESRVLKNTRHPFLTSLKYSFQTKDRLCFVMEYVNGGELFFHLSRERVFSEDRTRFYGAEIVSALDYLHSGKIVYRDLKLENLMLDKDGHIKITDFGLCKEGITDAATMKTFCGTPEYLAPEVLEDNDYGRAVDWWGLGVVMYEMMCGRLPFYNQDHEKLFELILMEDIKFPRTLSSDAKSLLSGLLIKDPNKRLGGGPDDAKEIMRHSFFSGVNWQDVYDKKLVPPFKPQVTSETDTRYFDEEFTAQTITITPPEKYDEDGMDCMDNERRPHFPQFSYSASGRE
T4 sequence (Q9P286 449-700 limits assumed): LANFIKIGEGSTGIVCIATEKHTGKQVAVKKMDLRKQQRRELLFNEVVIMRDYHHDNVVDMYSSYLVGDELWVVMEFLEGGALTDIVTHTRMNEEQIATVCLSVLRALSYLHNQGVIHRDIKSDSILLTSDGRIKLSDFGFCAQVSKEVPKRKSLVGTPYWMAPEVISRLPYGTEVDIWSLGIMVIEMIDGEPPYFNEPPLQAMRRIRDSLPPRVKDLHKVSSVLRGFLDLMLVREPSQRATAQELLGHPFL
T12 sequence (Q14289 425-683 limits assumed): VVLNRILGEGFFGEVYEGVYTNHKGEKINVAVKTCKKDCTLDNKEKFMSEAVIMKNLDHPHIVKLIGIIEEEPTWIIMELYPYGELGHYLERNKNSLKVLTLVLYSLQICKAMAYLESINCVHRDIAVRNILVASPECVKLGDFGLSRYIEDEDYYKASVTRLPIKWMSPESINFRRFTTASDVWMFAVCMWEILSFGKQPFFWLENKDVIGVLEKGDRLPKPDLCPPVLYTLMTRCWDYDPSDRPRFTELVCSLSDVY
T7 sequence (O96017 220-486 limits assumed): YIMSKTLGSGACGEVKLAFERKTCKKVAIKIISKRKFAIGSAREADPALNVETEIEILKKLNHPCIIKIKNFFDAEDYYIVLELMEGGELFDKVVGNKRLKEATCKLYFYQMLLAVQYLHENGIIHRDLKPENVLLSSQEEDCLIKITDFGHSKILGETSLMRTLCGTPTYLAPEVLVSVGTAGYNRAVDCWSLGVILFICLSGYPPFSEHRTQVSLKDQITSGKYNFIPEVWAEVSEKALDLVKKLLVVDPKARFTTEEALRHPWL
T11 sequence (O96013 whole entry, the tested form may be a part): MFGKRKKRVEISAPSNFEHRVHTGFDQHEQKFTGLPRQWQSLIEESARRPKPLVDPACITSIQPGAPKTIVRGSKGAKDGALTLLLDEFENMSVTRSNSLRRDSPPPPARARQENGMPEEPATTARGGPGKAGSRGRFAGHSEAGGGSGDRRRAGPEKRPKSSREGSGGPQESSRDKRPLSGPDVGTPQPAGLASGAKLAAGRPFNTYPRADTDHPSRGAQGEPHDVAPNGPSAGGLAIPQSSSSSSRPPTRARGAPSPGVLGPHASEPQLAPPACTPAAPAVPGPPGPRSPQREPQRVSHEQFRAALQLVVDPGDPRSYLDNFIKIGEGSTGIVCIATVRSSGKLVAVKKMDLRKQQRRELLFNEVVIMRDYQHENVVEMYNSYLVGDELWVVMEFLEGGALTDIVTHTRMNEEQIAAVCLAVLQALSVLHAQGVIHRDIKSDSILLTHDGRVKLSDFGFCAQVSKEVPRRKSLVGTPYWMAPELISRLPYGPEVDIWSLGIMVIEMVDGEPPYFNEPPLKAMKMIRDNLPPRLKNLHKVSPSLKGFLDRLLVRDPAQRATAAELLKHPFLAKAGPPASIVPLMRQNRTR
T1 sequence (P07332 448-822 limits assumed): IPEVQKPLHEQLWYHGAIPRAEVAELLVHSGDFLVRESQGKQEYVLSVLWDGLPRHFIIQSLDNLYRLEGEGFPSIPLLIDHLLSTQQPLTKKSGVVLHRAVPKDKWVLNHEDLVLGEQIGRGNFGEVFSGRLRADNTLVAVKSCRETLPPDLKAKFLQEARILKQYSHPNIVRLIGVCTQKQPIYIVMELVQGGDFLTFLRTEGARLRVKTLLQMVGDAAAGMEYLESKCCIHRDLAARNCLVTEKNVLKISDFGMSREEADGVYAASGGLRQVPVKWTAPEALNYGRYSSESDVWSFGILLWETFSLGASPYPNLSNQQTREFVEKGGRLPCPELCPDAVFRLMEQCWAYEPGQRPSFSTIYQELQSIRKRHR

With `NC(=O)Nc1cc(-c2ccccc2)sc1C(N)=O` [IKK-2 Inhibitor XI], the “Melting temperature (Tm) shift” value at FES Catalytic Domain+SH2 amounted to 1.1 degrees Celcius; on AKT3 Catalytic Domain it was 0.0 degrees Celcius; on DMPK Catalytic Domain it was 1.6 degrees Celcius; in [1], 1.0 degrees Celcius; on PAK7 Catalytic Domain, 1.3 degrees Celcius; at CDK2 + Cyclin A it was 0.9 degrees Celcius. Further, the “Melting temperature (Tm) shift” value was determined as 2.4 degrees Celcius at STK3 Catalytic Domain; 5.8 degrees Celcius at CHK2 Catalytic Domain; 1.4 degrees Celcius in assay [2]; 1.7 degrees Celcius at PAK4 Catalytic Domain; 2.1 degrees Celcius on FES Catalytic Domain; 2.9 degrees Celcius in [3]. The “Melting temperature (Tm) shift” value on SRC Catalytic Domain is 1.5 degrees Celcius; on FAK2 Catalytic Domain it was 1.5 degrees Celcius; on CDK2 + Cyclin E, 0.7 degrees Celcius.
Turning to `CC(C)n1cnc2c(Nc3cccc(Cl)c3)nc(NCCO)nc21` [Compound 52], the “Melting temperature (Tm) shift” value at FES Catalytic Domain+SH2 amounted to 0.6 degrees Celcius; at AKT3 Catalytic Domain it was 0.0 degrees Celcius; on DMPK Catalytic Domain, 0.0 degrees Celcius; in assay [1] it was 0.8 degrees Celcius; at PAK7 Catalytic Domain, 1.8 degrees Celcius; at CDK2 + Cyclin A it was 2.3 degrees Celcius. The “Melting temperature (Tm) shift” value on STK3 Catalytic Domain came to 1.2 degrees Celcius; on CHK2 Catalytic Domain, 1.1 degrees Celcius; in assay [2], 0.7 degrees Celcius; on PAK4 Catalytic Domain, 2.0 degrees Celcius; on FES Catalytic Domain it was 2.3 degrees Celcius; in [3], 5.0 degrees Celcius. Also, the entries for the “Melting temperature (Tm) shift” value on SRC Catalytic Domain, at FAK2 Catalytic Domain and on CDK2 + Cyclin E were 0.9 degrees Celcius, 0.9 degrees Celcius and 1.7 degrees Celcius, respectively.
For the compound Chk2 Inhibitor, the “Melting temperature (Tm) shift” value was 0.6 degrees Celcius at FES Catalytic Domain+SH2; 0.0 degrees Celcius on AKT3 Catalytic Domain; 1.4 degrees Celcius on DMPK Catalytic Domain; 0.3 degrees Celcius in assay [1]; 0.3 degrees Celcius on PAK7 Catalytic Domain; 2.9 degrees Celcius at CDK2 + Cyclin A. In addition, the “Melting temperature (Tm) shift” value was found to be 2.3 degrees Celcius on STK3 Catalytic Domain; 8.7 degrees Celcius on CHK2 Catalytic Domain; 3.4 degrees Celcius in [2]; 0.7 degrees Celcius at PAK4 Catalytic Domain; 3.0 degrees Celcius on FES Catalytic Domain; 0.6 degrees Celcius in assay [3]. Besides, the figures for the “Melting temperature (Tm) shift” value on SRC Catalytic Domain, on FAK2 Catalytic Domain and at CDK2 + Cyclin E were 0.2 degrees Celcius, 2.6 degrees Celcius and 1.9 degrees Celcius, respectively.
As for `O=C1NC(=O)C(c2c[nH]c3ccccc23)=C1c1c[nH]c2ccccc12` [Bisindolylmaleimide IV], the “Melting temperature (Tm) shift” value is given as 0.9 degrees Celcius on FES Catalytic Domain+SH2; 0.0 degrees Celcius on AKT3 Catalytic Domain; 2.7 degrees Celcius on DMPK Catalytic Domain; 0.0 degrees Celcius in [1]; 0.1 degrees Celcius on PAK7 Catalytic Domain; 0.9 degrees Celcius on CDK2 + Cyclin A. Moreover, the “Melting temperature (Tm) shift” value turned out to be 0.9 degrees Celcius on STK3 Catalytic Domain; 4.1 degrees Celcius on CHK2 Catalytic Domain; 2.0 degrees Celcius in assay [2]; 0.4 degrees Celcius on PAK4 Catalytic Domain; 0.5 degrees Celcius at FES Catalytic Domain; 0.0 degrees Celcius in assay [3]. In addition, the “Melting temperature (Tm) shift” value at SRC Catalytic Domain is 0.3 degrees Celcius; at FAK2 Catalytic Domain it was 0.1 degrees Celcius; on CDK2 + Cyclin E, 0.7 degrees Celcius.
On to `NC(=O)Nc1sc(-c2ccc(F)cc2)cc1C(N)=O` [IKK-2 Inhibitor IV], for which the “Melting temperature (Tm) shift” value was found to be 0.5 degrees Celcius at FES Catalytic Domain+SH2; 0.1 degrees Celcius at AKT3 Catalytic Domain; 1.8 degrees Celcius at DMPK Catalytic Domain; 1.0 degrees Celcius in assay [1]; 1.3 degrees Celcius at PAK7 Catalytic Domain; 0.7 degrees Celcius at CDK2 + Cyclin A. For the same compound, the “Melting temperature (Tm) shift” value came to 2.8 degrees Celcius on STK3 Catalytic Domain; 3.6 degrees Celcius at CHK2 Catalytic Domain; 1.6 degrees Celcius in assay [2]; 1.5 degrees Celcius at PAK4 Catalytic Domain; 1.5 degrees Celcius at FES Catalytic Domain; 2.4 degrees Celcius in [3]. Also, the “Melting temperature (Tm) shift” value at SRC Catalytic Domain is given as 1.2 degrees Celcius; at FAK2 Catalytic Domain, 1.2 degrees Celcius; on CDK2 + Cyclin E it was 0.4 degrees Celcius.
In the case of `NC(=O)Nc1sc(-c2ccccc2)cc1C(N)=O` [IKK-2 Inhibitor VI], the “Melting temperature (Tm) shift” value is 0.7 degrees Celcius on FES Catalytic Domain+SH2; 0.0 degrees Celcius on AKT3 Catalytic Domain; 1.4 degrees Celcius on DMPK Catalytic Domain; 1.1 degrees Celcius in assay [1]; 1.3 degrees Celcius at PAK7 Catalytic Domain; 0.8 degrees Celcius at CDK2 + Cyclin A. Also, the “Melting temperature (Tm) shift” value came out at 2.4 degrees Celcius on STK3 Catalytic Domain; 3.6 degrees Celcius at CHK2 Catalytic Domain; 2.0 degrees Celcius in [2]; 1.3 degrees Celcius at PAK4 Catalytic Domain; 1.8 degrees Celcius at FES Catalytic Domain; 2.5 degrees Celcius in [3]. Besides, the “Melting temperature (Tm) shift” value was 1.3 degrees Celcius on SRC Catalytic Domain, 1.4 degrees Celcius at FAK2 Catalytic Domain and 0.2 degrees Celcius on CDK2 + Cyclin E.

The record behind these values is publication PMC4051630, “A Comparison of Protein Kinases Inhibitor Screening Methods Using Both Enzymatic Activity and Binding Affinity Determination” (PLoS ONE, 2014).
